Where a SMILES comes first, the peptide text is derived from it.
Tests used:
Aβ plaques = test: 4G8 immunohistochemistry, Aβ plaque density; type: in vivo, mouse; conditions: HC and CTX; 5 mg∙kg^−1 i.p., six months; five animals per group
Method: (§1) For this study, three-month-old male and female WT and APP/PS1 mice (n = 37) were used. Four groups were defined: WT-vehicle (physiological saline) (male n = 4; female n = 6), WT-P33 (male n = 6; female n = 5), APP/PS1-vehicle (male n = 3; female n = 5), and APP/PS1-P33 (male n = 6; female n = 2). Animals were subjected to intraperitoneal (i.p.) injections of P33 (5 mg∙kg^−1) for five days per week, over a course of six months. The mice were kept in groups under constant temperature (23 ± 0.5 °C), lighting (12-h/12-h light/dark cycle, lights on at 7:00 a.m.), and humidity (~50%). Standard mouse chow and tap water were supplied ad libitum. All behavioral experiments were performed in the light period. Handling was done daily at the same time.
Mice (five animals per group) were anaesthetized with chloral-hydrate (1 mg∙kg^−1) and perfused transcardially with PBS, followed by ice-cold 4% paraformaldehyde. The brains were removed, post-fixed in the same fixative, and immersed in a 30% sucrose solution containing 0.01% sodium-azide. […]
Slides were scanned by a digital slide scanner (Mirax Midi, 3DHistech Ltd., Budapest, Hungary), equipped with a Pannoramic Viewer 1.15.4, CaseViewer 2.1 program and a QuantCenter, HistoQuant module (3DHistech Ltd., Budapest, Hungary). For quantification, all of the sections were analyzed. […] Antibody-positive cell types from the ROIs were counted and quantified. […]

synaptophysin (SYN) = test: Western blot, synaptophysin (SYN) level; type: in vivo, mouse; conditions: four groups WT/APP/PS1, vehicle/P33; 5 mg∙kg^−1 i.p., six months
Method: as §1, with “Handling was done daily at the same time.” left out
Protein samples, identically prepared as for ELISA, (20 μg/lane) were separated on a 15% SDS-polyacrylamide gel (80 V, 20 min at RT; than 130 V, 60 min at RT) or on a 4–12% NuPAGE® Bis-Tris Gel (Thermo Fischer Scientific, Waltham, MA, USA, 200V, 30 min at RT) and transferred to a nitrocellulose membrane (Whatman, Maidstone, UK, 450 mA, 90 min at 4 °C). […] Membranes were scanned with a Bio-Rad Molecular Imager® ChemiDoc™ XRS+Imaging System (Bio-Rad Laboratories, Hercules, CA, USA) and evaluated with the Image Lab 4.0 software.
The results of spine density and immunohistochemistry experiments were calculated with one-way ANOVA followed by Fisher’s LSD post hoc tests. […]

## C[C@@H](N)C(=O)N1CCC[C@@H]1C(=O)N[C@H](C)C(=O)N1CCC[C@@H]1C(=O)N[C@H](CCC(=O)O)C(N)=O [P33] (HELM PEPTIDE1{[dA].[dP].[dA].[dP].[dE].[am]}$$$$V2.0)
Aβ plaques
  Aβ plaque density, effect of P33 (in words): significantly decreased the plaque density in APP/PS1-P33 mice
Synaptophysin (SYN)
  SYN level, effect (in words): significant differences were not found between the groups
